Data on three compounds can be found in publication PMC10487733, “Synthesis, Conformational Analysis and Antitumor Activity of the Naturally Occurring Antimicrobial Medium-Length Peptaibol Pentadecaibin and Spin-Labeled Analogs Thereof” (International Journal of Molecular Sciences, 2023).

The term IC50 denotes the concentration needed to halve the response being measured.

Where a SMILES comes first, the peptide text is derived from it. [ ]: non-standard residue; d: D form. TOAC = CC1(C)CC(N)(C(=O)O)CC(C)(C)N1[O]; Phe(ol) = N[C@H](CO)Cc1ccccc1; Aib = CC(C)(N)C(=O)O

Series [1] concerns A549 (human lung adenocarcinoma). The note with it: A549 cells, 24 h exposure to 0–20 µM peptaibol, MTS read-out at 490 nm; value [95% CI]; at least three independent experiments in triplicate.
Series [2] in a line: Peptide-induced carboxyfluorescein leakage from PE/PG liposomes. The note with it: PE/PG 7:3 SUVs 0.06 mM, HEPES pH 7.4, 20 min incubation, fluorescence 488/520 nm, relative to Triton X-100; qualitative; more efficient than trichogin GA IV, particularly on these SUVs. The protocol: (§1) The assay was carried out on model liposomes (small unilamellar vesicles, SUV) of two different compositions, namely phosphatidylcholine/cholesterol (PC/Ch) 7:3 and phosphatidylethanolamine/phosphatidylglycerol (PE/PG) 7:3. Using fluorescence measurements, the ability of the peptides to induce the release of the carboxyfluorescein (CF) dye previously included within SUVs was evaluated.
(§2) The chosen lipid compositions result in different net surface charges on the SUVs. […] On the other hand, when the peptide perturbs the artificial membrane, it causes the leakage of the CF, and therefore leads to an increase in fluorescence intensity. The maximum value of fluorescence intensity, corresponding to the complete destruction of the vesicles via the surfactant Triton X-100, was used as a reference. […]
(§3) Phosphatidylcholine (PC), phosphatidylglycerol (PG), phosphatidylethanolamine (PE) and cholesterol (Ch) were purchased from Avanti Polar Lipids (Alabaster, AL, USA). […] To evaluate the peptide ability to modulate membrane permeability, CF leakage from the liposomes was measured via fluorescence spectroscopy on a Perkin Elmer (Waltham, MA, USA) MPF-66 spectrofluorimeter. The procedure was as follows: 2.5 mL of each SUV at 0.06 mM concentration was inserted in twelve disposable fluorescence cuvettes and fluorescence was recorded (λexc = 488 nm) for all of them at 520 nm (F0). […]

Series [3] has as its system SK-OV-3 (human ovarian adenocarcinoma). The note with it: SK-OV-3 cells, 24 h exposure to 0–20 µM peptaibol, MTS read-out at 490 nm; value [95% CI]; at least three independent experiments in triplicate.
Series [4] concerns MUG-Mel2 (human melanoma). The conditions noted are these: MUG-Mel2 cells, 24 h exposure to 0–20 µM peptaibol, MTS read-out at 490 nm; CI not given; at least three independent experiments in triplicate.
Series [5] has as its system MDA-MB-231 (human triple-negative breast cancer). The conditions noted are these: MDA-MB-231 cells, 24 h exposure to 0–20 µM peptaibol, MTS read-out at 490 nm; value [95% CI]; at least three independent experiments in triplicate.
The nature of series [6]: Peptide-induced carboxyfluorescein leakage from PC/Ch liposomes. The note with it: PC/Ch 7:3 SUVs 0.06 mM, HEPES pH 7.4, 20 min incubation, fluorescence 488/520 nm, relative to Triton X-100; qualitative; more efficient than trichogin GA IV. The protocol:
as §1, §2, §3

A short description of series [7]: Circular dichroism in SDS micelles (helix aggregation index). Type of series: physicochemical. The note with it: CD in 100 mM aqueous SDS micelles, 25 °C, 1 mm cell, 16 scans; ratio is ≈ 0.9 in CH3OH. The protocol:
We performed a CD analysis of the peptides in methanol and in the presence of micelles of sodium dodecyl sulfate (SDS) 100 mM in water.
CD spectra of α-helical peptides feature two negative and one positive maxima centered at about 208, 222 and 195 nm, respectively. Aib-containing peptides are known to fold in 3_10-helices, which is common for peptaibols. In this case, the first negative maximum shifts from 208 to about 205 nm.
CD measurements were acquired on a Jasco J-1500 spectrophotometer (Tokyo, Japan), using a 1 mm pathlength quartz cell (Hellma Analytics, Munich, Germany). Methanol or a solution of sodium dodecyl sulfate (SDS) 100 mM in milliQ water was used as solvent. An amount of 1 mM of solutions of the three peptides in each of the two solvents of choice was prepared. Then, 300 µL of each solution was inserted in the 1 mm quartz cell and the cell put into the cell holder of the Jasco J-1500 instrument. The measurements were performed at 25 °C, acquiring 16 scans. The temperature was kept constant by means of an external Peltier thermostat (ThermoHaake C25P, Karlbruhe, Germany).
A general note: Circular dichroism is widely used to follow secondary structure.

In the case of `CC(=O)NC(C)(C)C(=O)NCC(=O)N[C@@H](C)C(=O)N[C@@H](CC(C)C)C(=O)NC(C)(C)C(=O)N[C@@H](CCC(N)=O)C(=O)NC(C)(C)C(=O)N[C@H](C(=O)NC(C)(C)C(=O)N[C@@H](C)C(=O)NC(C)(C)C(=O)NC(C)(C)C(=O)NC(C)(C)C(=O)N[C@@H](CCC(N)=O)C(=O)N[C@H](CO)Cc1ccccc1)C(C)C` [VX, pentadecaibin] (Ac-[Aib]GAL[Aib]Q[Aib]V[Aib]A[Aib][Aib][Aib]Q[Phe(ol)]), the half-maximal inhibitory concentration (IC50) in series [1] came to 9.1 µM; in series [3] it was 11.1 µM; in series [4], 14.2 µM; in series [5], 8.79 µM. Besides, the “membrane activity (CF leakage from SUVs)” value in series [2] and in series [6] was “equally membrane active” throughout. The “ratio R = [θ]222/[θ]208 (index of aggregation between helices)” value in series [7] is given as “greater than 1”.

On to `CC(=O)NC(C)(C)C(=O)NCC(=O)N[C@@H](C)C(=O)N[C@@H](CC(C)C)C(=O)NC(C)(C)C(=O)N[C@@H](CCC(N)=O)C(=O)NC(C)(C)C(=O)N[C@H](C(=O)NC(C)(C)C(=O)N[C@@H](C)C(=O)NC1(C(=O)NC(C)(C)C(=O)NC(C)(C)C(=O)N[C@@H](CCC(N)=O)C(=O)N[C@H](CO)Cc2ccccc2)CC(C)(C)N([O])C(C)(C)C1)C(C)C` [To11-VX, [Toac^11]-pentadecaibin] (Ac-[Aib]GAL[Aib]Q[Aib]V[Aib]A[TOAC][Aib][Aib]Q[Phe(ol)]), for which the 50% inhibitory concentration (IC50) came out at 9.7 µM in series [1], 13.6 µM in series [4] and 8.04 µM in series [5]. Also, in series [7], the “ratio R = [θ]222/[θ]208 (index of aggregation between helices)” value is “greater than 1”.

As for `CC(=O)NC1(C(=O)NCC(=O)N[C@@H](C)C(=O)N[C@@H](CC(C)C)C(=O)NC(C)(C)C(=O)N[C@@H](CCC(N)=O)C(=O)NC(C)(C)C(=O)N[C@H](C(=O)NC(C)(C)C(=O)N[C@@H](C)C(=O)NC(C)(C)C(=O)NC(C)(C)C(=O)NC(C)(C)C(=O)N[C@@H](CCC(N)=O)C(=O)N[C@H](CO)Cc2ccccc2)C(C)C)CC(C)(C)N([O])C(C)(C)C1` [To1-VX, [Toac^1]-pentadecaibin] (Ac-[TOAC]GAL[Aib]Q[Aib]V[Aib]A[Aib][Aib][Aib]Q[Phe(ol)]), the IC50 was determined as 11.1 µM in series [1], 9.56 µM in series [3], 10.1 µM in series [4] and 7.98 µM in series [5]. Moreover, the “ratio R = [θ]222/[θ]208 (index of aggregation between helices)” value in series [7] is on record as “greater than 1”.
